What was measured:
[1] = molecular target: β-glucosidase from T. reesei; details: cited from earlier work
[2] = molecular target: T1, β-glucosidase from A. niger (Aspergillus niger, UniProt A2RAL4); details: cited from earlier work
T1 sequence (A2RAL4 20-860): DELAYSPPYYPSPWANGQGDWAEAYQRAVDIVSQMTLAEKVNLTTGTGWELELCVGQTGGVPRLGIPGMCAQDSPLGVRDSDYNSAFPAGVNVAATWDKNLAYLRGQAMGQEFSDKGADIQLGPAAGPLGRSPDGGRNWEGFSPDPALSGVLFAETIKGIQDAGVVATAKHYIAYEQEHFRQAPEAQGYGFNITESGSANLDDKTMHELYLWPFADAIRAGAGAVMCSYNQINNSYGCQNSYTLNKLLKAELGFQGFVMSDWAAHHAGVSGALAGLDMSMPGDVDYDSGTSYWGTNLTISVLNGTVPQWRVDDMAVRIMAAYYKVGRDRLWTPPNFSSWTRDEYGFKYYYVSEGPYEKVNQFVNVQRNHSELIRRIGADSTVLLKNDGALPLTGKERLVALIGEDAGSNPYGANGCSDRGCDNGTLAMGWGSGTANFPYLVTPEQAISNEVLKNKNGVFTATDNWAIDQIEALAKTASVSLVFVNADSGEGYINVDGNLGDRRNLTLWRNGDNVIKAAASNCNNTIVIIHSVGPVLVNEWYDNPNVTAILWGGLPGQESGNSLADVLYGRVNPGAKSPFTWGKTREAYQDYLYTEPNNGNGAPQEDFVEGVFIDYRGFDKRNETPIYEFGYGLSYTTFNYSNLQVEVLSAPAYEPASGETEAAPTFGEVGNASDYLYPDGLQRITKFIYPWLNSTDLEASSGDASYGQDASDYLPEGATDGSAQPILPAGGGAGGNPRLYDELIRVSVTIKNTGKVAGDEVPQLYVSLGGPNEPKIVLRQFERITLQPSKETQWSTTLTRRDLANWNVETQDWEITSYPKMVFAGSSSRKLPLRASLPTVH

[3] = tested on: Cellic Ctec2; assay: Enzymatic hydrolysis of LHW pretreated hardwood (severity log Ro=12.51) at different hydrolysis conditions (FIG. 6); type: biochemical, Trichoderma reesei; details: 200 mM NaCl at pH 4.8; 5 FPU (8 mg) Ctec2/g glucan, 72 hrs
Description: In this work, the lignocellulosic substrate was enzymatically hydrolyzed in order to study how the non-productive adsorption affected the enzymatic hydrolysis efficiency. The glucose yield of LHW pretreated hardwood containing 57.9% glucan and 40.3% lignin was measured for a low enzyme loading amount of 5 FPU (8 mg) Ctec2/g glucan at given conditions (FIG. 6). […] This might be due to the decreased cellulase activity at pH 5.5 as shown in microcrystalline cellulose (Avicel) hydrolysis. The overall decrease in T. reesei cellulase cocktail (Ctec2) adsorption onto lignins at elevated pHs was in agreement with the results by Lou et al. (2013). The reduced nonproductive adsorption led to the enhanced glucose yield more than twofold when the dilute acid or sulfite pretreated softwood was hydrolyzed with higher amount (10 FPU/g glucan) of cellulase (Lou et al., 2013).

[4] = adapted from literature; cited from earlier work

O=C(O)c1cc(O)c(O)c(O)c1 [gallic acid]
k, deactivation rate constant [1]: 0.046 h⁻¹
k, deactivation rate constant [2]: 0.006 h⁻¹

[Cl-].[Na+] [NaCl]
effect on glucose yield [3]: did not affect the glucose yield

O=C(OC[C@H]1O[C@@H](OC(=O)c2cc(O)c(O)c(OC(=O)c3cc(O)c(O)c(O)c3)c2)[C@H](OC(=O)c2cc(O)c(O)c(OC(=O)c3cc(O)c(O)c(O)c3)c2)[C@@H](OC(=O)c2cc(O)c(O)c(OC(=O)c3cc(O)c(O)c(O)c3)c2)[C@@H]1OC(=O)c1cc(O)c(O)c(OC(=O)c2cc(O)c(O)c(O)c2)c1)c1cc(O)c(O)c(OC(=O)c2cc(O)c(O)c(O)c2)c1 [tannic acid]
k, deactivation rate constant [1]: 0.068 h⁻¹
k, deactivation rate constant [2]: 0.045 h⁻¹

B1: CBHI: T. reesei enzyme, gene cel7a, GH7 (protein, UniProt P62694 18-513, looked up)
Exoglucanase 1: QSACTLQSETHPPLTWQKCSSGGTCTQQTGSVVIDANWRWTHATNSSTNCYDGNTWSSTLCPDNETCAKNCCLDGAAYASTYGVTTSGNSLSIGFVTQSAQKNVGARLYLMASDTTYQEFTLLGNEFSFDVDVSQLPCGLNGALYFVSMDADGGVSKYPTNTAGAKYGTGYCDSQCPRDLKFINGQANVEGWEPSSNNANTGIGGHGSCCSEMDIWEANSISEALTPHPCTTVGQEICEGDGCGGTYSDNRYGGTCDPDGCDWNPYRLGNTSFYGPGSSFTLDTTKKLTVVTQFETSGAINRYYVQNGVTFQQPNAELGSYSGNELNDDYCTAEEAEFGGSSFSDKGGLTQFKKATSGGMVLVMSLWDDYYANMLWLDSTYPTNETSSTPGAVRGSCSTSSGVPAQVESQSPNAKVTFSNIKFGPIGSTGNPSGGNPPGGNRGTTTTRRPATTTGSSPGPTQSHYGQCGGIGYSGPTVCASGTTCQVLNPYYSQCL
Experimental pI [4]: (3.6-3.9)

B2: EGII: T. reesei enzyme, gene cel5a, GH5 (protein, UniProt P07982 22-418, looked up)
Endoglucanase EG-II: QQTVWGQCGGIGWSGPTNCAPGSACSTLNPYYAQCIPGATTITTSTRPPSGPTTTTRATSTSSSTPPTSSGVRFAGVNIAGFDFGCTTDGTCVTSKVYPPLKNFTGSNNYPDGIGQMQHFVNEDGMTIFRLPVGWQYLVNNNLGGNLDSTSISKYDQLVQGCLSLGAYCIVDIHNYARWNGGIIGQGGPTNAQFTSLWSQLASKYASQSRVWFGIMNEPHDVNINTWAATVQEVVTAIRNAGATSQFISLPGNDWQSAGAFISDGSAAALSQVTNPDGSTTNLIFDVHKYLDSDNSGTHAECTTNNIDGAFSPLATWLRQNNRQAILTETGGGNVQSCIQDMCQQIQYLNQNSDVYLGYVGWGAGSFDSTYVLTETPTSSGNSWTDTSLVSSCLARK
Experimental pI [4]: (4.2-5.5)

B3: EGI: T. reesei enzyme, gene cel7b, GH7 (protein, UniProt P07981 23-459, looked up)
Endoglucanase EG-1: QQPGTSTPEVHPKLTTYKCTKSGGCVAQDTSVVLDWNYRWMHDANYNSCTVNGGVNTTLCPDEATCGKNCFIEGVDYAASGVTTSGSSLTMNQYMPSSSGGYSSVSPRLYLLDSDGEYVMLKLNGQELSFDVDLSALPCGENGSLYLSQMDENGGANQYNTAGANYGSGYCDAQCPVQTWRNGTLNTSHQGFCCNEMDILEGNSRANALTPHSCTATACDSAGCGFNPYGSGYKSYYGPGDTVDTSKTFTIITQFNTDNGSPSGNLVSITRKYQQNGVDIPSAQPGGDTISSCPSASAYGGLATMGKALSSGMVLVFSIWNDNSQYMNWLDSGNAGPCSSTEGNPSNILANNPNTHVVFSNIRWGDIGSTTNSTAPPPPPASSTTFSTTRRSSTTSSSPSCTQTHWGQCGGIGYSGCKTCTSGTTCQYSNDYYSQCL
Experimental pI [4]: (3.9-4.5)

B4: CBHII: T. reesei enzyme, gene cel6a, GH6 (protein, UniProt P07987 25-471, looked up)
Exoglucanase 2: QACSSVWGQCGGQNWSGPTCCASGSTCVYSNDYYSQCLPGAASSSSSTRAASTTSRVSPTTSRSSSATPPPGSTTTRVPPVGSGTATYSGNPFVGVTPWANAYYASEVSSLAIPSLTGAMATAAAAVAKVPSFMWLDTLDKTPLMEQTLADIRTANKNGGNYAGQFVVYDLPDRDCAALASNGEYSIADGGVAKYKNYIDTIRQIVVEYSDIRTLLVIEPDSLANLVTNLGTPKCANAQSAYLECINYAVTQLNLPNVAMYLDAGHAGWLGWPANQDPAAQLFANVYKNASSPRALRGLATNVANYNGWNITSPPSYTQGNAVYNEKLYIHAIGPLLANHGWSNAFFITDQGRSGKQPTGQQQWGDWCNVIGTGFGIRPSANTGDSLLDSFVWVKPGGECDGTSDSSAPRFDSHCALPDALQPAPQAGAWFQAYFVQLLTNANPSFL
Experimental pI [4]: (5.2-5.9)
